# Test results as given in ChEMBL document CHEMBL5214892, “Antitumor potential of the protein phosphatase inhibitor, cantharidin, and selected derivatives” (Bioorg Med Chem, 2021).
# Tests used:
# HepG2 [1] = assay: Anticancer activity against human HepG2 cells assessed as cell growth inhibition measured after 72 hrs by MTT assay; format: functional, cell-based; conditions: HepG2, 72 h
# KB 3-1 = assay: Anticancer activity against human KB 3-1 cells assessed as cell growth inhibition measured after 72 hrs by MTT assay; format: functional, cell-based; conditions: KB 3-1, 72 h
# [2] = Inhibition of bovine brain PP2A assessed as dephosphorylation of substrate using P32 labelled peptide DLDVPIPGRFDRRVSVAAE as substrate by radiometric analysis; parameters: species or system Bos taurus
# HL-60 = assay: Anticancer activity against human HL-60 cells assessed as cell growth inhibition measured after 72 hrs by MTT assay; format: functional, cell-based; conditions: HL-60, 72 h
# [3] = Inhibition of PP1 (unknown origin); parameters: species or system Homo sapiens
# Homo sapiens = species: Homo sapiens; assay: Anticancer activity against human Liver cancer cell assessed as cell growth inhibition; format: functional
# HepG2 [4] = assay: Anticancer activity against human HepG2 cells assessed as cell growth inhibition incubated for 2 days by MTT assay; format: functional, cell-based; conditions: HepG2, 48 h
# [5] = Toxicity in mouse assessed as lethal dose administered intraperitoneally; conditions: in vivo, route ip
# [6] = Anticancer activity against human leukaemia cell line assessed as cell growth inhibition; format: functional, cell-based
# [7] = Inhibition of rabbit liver PP2C assessed as dephosphorylation of substrate using P32 labelled peptide as substrate by radiometric analysis; parameters: species or system Oryctolagus cuniculus
# [8] = Anticancer activity against human oral cancer cell assessed as cell growth inhibition; format: functional, cell-based
# SMMC-7721 = assay: Anticancer activity against human SMMC-7721 cell assessed as cell growth inhibition measured after 24 to 48 hrs by SRB colorimetry assay; format: functional, cell-based
# Bel-7402 = assay: Anticancer activity against human Bel-7402 cell assessed as cell growth inhibition measured after 24 to 48 hrs by SRB colorimetry assay; format: functional, cell-based
# [9] = Cytotoxicity against human Bone marrow cell assessed as cell growth inhibition by MTS assay; format: toxicity, cell-based; conditions: bone marrow cells
# Hep 3B2 [10] = assay: Anticancer activity against human Hep3B cells assessed as cell growth inhibition incubated for 48 hrs by MTS assay; format: functional, cell-based
# HT-29 = assay: Anticancer activity against human HT-29 cells assessed as cell growth inhibition measured after 72 hrs by MTT assay; format: functional, cell-based; conditions: HT-29, 72 h
# A-431 = assay: Anticancer activity against human A-431 cells assessed as cell growth inhibition measured after 72 hrs by MTT assay; format: functional, cell-based; conditions: A-431, 72 h
# Colon cancer cell line = assay: Anticancer activity against human Colon carcinoma cell assessed as cell growth inhibition; format: functional, cell-based
# BE(2)-C = assay: Anticancer activity against human BE2C cells assessed as cell growth inhibition measured after 72 hrs by MTT assay; format: functional, cell-based
# DU-145 = assay: Anticancer activity against human DU-145 cells assessed as cell growth inhibition measured after 72 hrs by MTT assay; format: functional, cell-based; conditions: DU-145, 72 h
# MCF7 = assay: Anticancer activity against human MCF7 cells assessed as cell growth inhibition measured after 72 hrs by MTT assay; format: functional, cell-based; conditions: MCF7, 72 h
# MIA PaCa-2 = assay: Anticancer activity against human MIA PaCa-2 cells assessed as cell growth inhibition measured after 72 hrs by MTT assay; format: functional, cell-based; conditions: MIA PaCa-2, 72 h
# [11] = Inhibition of PP (unknown origin); parameters: species or system Homo sapiens
# Hep 3B2 [12] = assay: Anticancer activity against human Hep3B cells assessed as cell growth inhibition incubated for 48 hrs by MTT assay; format: functional, cell-based
# Lung cancer cell line = assay: Anticancer activity against human Lung cancer cell line assessed as cell growth inhibition; format: functional, cell-based
# [13] = Homo sapiens, Liver cancer cell
SMILES,IC50 (HepG2 [1]),IC50 (KB 3-1),IC50 [2],IC50 (HL-60),IC50 [3],LD50 [5],IC50 (Homo sapiens; [13]),IC50 [7],other results
O=C1OC[C@@H]2[C@H]1[C@H]1CC[C@@H]2O1,> 200 µM,112 µM,99.9 µM,> 200 µM,62.2 µM,,,,
O=C(O)[C@@H]1[C@H](C(=O)O)[C@H]2CC[C@@H]1O2 [listing 1 of 2 here],,,,,,,,,IC50 (Homo sapiens; liver cancer cell): 15 µM; IC50 (HepG2 [4]): 15.4 µM
C[C@]1(C(=O)O)[C@@H]2CC[C@@H](O2)[C@@]1(C)C(=O)O,218 µM,79.2 µM,0.05 µM,103 µM,0.56 µM,1.8 mg/kg,> 50 µM,> 1000 µM,IC50 [6]: > 50 µM; IC50 [8]: > 50 µM
O=C(O)[C@@H]1[C@H](C(=O)O)[C@H]2CC[C@@H]1O2 [listing 2 of 2 here],,,,,,,12 µM,,IC50 (SMMC-7721): 12.5 µM; IC50 (Bel-7402): 12.5 µM
C[C@@]12C(=O)N(c3nc4ccc(OC(F)(F)F)cc4s3)C(=O)[C@]1(C)[C@H]1CC[C@@H]2O1 [CANTHARIDIMIDE],,,,,,,6.5 µM,,IC50 [9]: > 12.5 µg/mL; IC50 (Hep 3B2 [10]): 15.8 µM
O=C(NCc1ccc(-c2ccccc2)cc1)C(CNC(=O)[C@H]1[C@@H](C(=O)O)[C@@H]2CC[C@H]1O2)Cc1ccco1 (stereo not given in full),,,,,,,,,IC50 (HT-29): 0.015 µM; IC50 (A-431): 0.045 µM; IC50 (Colon cancer cell line): 0.015 µM; IC50 (BE(2)-C): 0.029 µM; IC50 (DU-145): 0.026 µM; IC50 (MCF7): 0.027 µM; IC50 (MIA PaCa-2): 0.056 µM
C[C@@]12C(=O)OC(=O)[C@@H]1[C@H]1CC[C@@H]2O1,,,0.12 µM,,0.66 µM,,,> 1000 µM,IC50 [11]: < 1 µM
C[C@@]12C(=O)N(c3ncc([N+](=O)[O-])s3)C(=O)[C@]1(C)[C@H]1CC[C@@H]2O1,,,,,,,< 1 µM,,IC50 (Hep 3B2 [12]): 0.4 µM
C[C@@]12C(=O)OC(=O)[C@]1(C)[C@H]1CC[C@@H]2O1 [CANTHARIDIN],19.1 µM,2.7 µM,0.04 µM,2.7 µM,0.47 µM,1 mg/kg,2 µM,> 1000 µM,IC50 (Lung cancer cell line): 2 µM; IC50 [6]: 2 µM; IC50 (Colon cancer cell line): 2 µM; IC50 [9]: 6.5 µg/mL; IC50 [8]: 2 µM
O=C1OC(=O)C2C3CCC(O3)C12 (stereo not given) [DEMETHYL-CANTHARIDIN],213 µM,69.5 µM,0.37 µM,15.7 µM,1.98 µM,4 mg/kg,> 15 µM,,IC50 [6]: > 15 µM; IC50 (Colon cancer cell line): > 15 µM; IC50 [8]: > 15 µM
C[C@@]12COC(=O)[C@]1(C)[C@H]1CC[C@@H]2O1,> 200 µM,> 200 µM,> 200 µM,> 200 µM,> 200 µM,,,,
CN1C(=O)[C@@]2(C)[C@@H]3CC[C@@H](O3)[C@@]2(C)C1=O,,,,,,,,,IC50 (Hep 3B2 [12]): > 2000 µM
O=C(O)[C@@H]1[C@H](C(=O)O)[C@H]2CC[C@@H]1O2 [ENDOTHALL],,,0.97 µM,,5 µM,14 mg/kg,,> 1000 µM,IC50 [11]: > 0.9 µM
